Experiments:
[1] = system: RARA and RXRA protein levels in NB4 cells; experiment: Whole-proteome mass spectrometry of NB4 cells; assay type: cell-based, human; settings: ATRA 24 h, n = 3 per condition
Experimental: Cells were lysed by addition of lysis buffer (8 M Urea, 50 mM NaCl, 50 mM 4-(2-hydroxyethyl)-1-piperazineethanesulfonic acid (EPPS) pH 8.5, Protease and Phosphatase inhibitors) and homogenization by bead beating (BioSpec) for three repeats of 30 seconds at 2400. Bradford assay was used to determine the final protein concentration in the clarified cell lysate. […] Desalted peptides were dried in a vacuum-centrifuged and reconstituted in 0.1% formic acid for LC-MS analysis.
Data were collected using a TimsTOF Pro2 (Bruker Daltonics, Bremen, Germany) coupled to a nanoElute LC pump (Bruker Daltonics, Bremen, Germany) via a CaptiveSpray nano-electrospray source.
The ddaPASEF parameters included: 100% duty cycle using accumulation and ramp times of 50 ms each, 1 TIMS-MS scan and 10 PASEF ramps per acquisition cycle. […] The quadrupole isolation width was set to 2 m/z for m/z <700 and 3 m/z for m/z >800, with the m/z between 700–800 m/z being interpolated linearly. […] To perform diaPASEF, the precursor distribution in the DDA m/z-ion mobility plane was used to design an acquisition scheme for DIA data collection which included two windows in each 50 ms diaPASEF scan. […]

[2] = system: RARA and PML-RARA; experiment: Western blotting of RARA / PML-RARA degradation in NB4 cells; assay type: cell-based, human
Experimental: Membranes were blocked for 30 minutes to 1 hour at room temperature in Odyssey Blocking Buffer/PBS (LI-COR Biosciences), and incubated with primary antibodies at 4 °C overnight. Stained membranes were washed three times in Tris-buffered saline with Tween 20 (TBS-T) and incubated for 1 hour at room temperature with secondary IRDye-conjugated antibodies (LI-COR Biosciences). Membranes were washed three times in TBS-T before imaging (Odyssey Imaging System, LI-COR Biosciences).

[3] = system: NB4 cells; experiment: NB4 viability (relative cell counts); assay type: cell-based, human; settings: shUBR5 vs shCTRL, n = 4
Experimental: (D) Western blotting of NB4 cells transduced with shRNAs against luciferase (shCTRL) or UBR5 treated with or without ATRA. (E) Viability by relative cell counts of NB4 cells transduced with control or UBR5 shRNAs (two shRNAs per condition, combined) following treatment with 1 μM ATRA for 24 h. (n = 4, two-sided t test). […] (NS, not significant, *p < 0.05, **p < 0.005, ***p < 0.0005, ****p < 0.00005, error bars represent SEM.)
All flow cytometry-based assays (degradation and viability assays) were run in triplicate (n=3) unless otherwise specified where n represents a distinct flow cytometric specimen (a well or tube containing ~100,000 cells). P-values were calculated using GraphPad Prism two-sided t-test and are centered around the mean and error bars represent the SEM unless otherwise specified.
K. NB4 cell viability following
transduction of shRNAs againstluciferase or UBR5 and ATRA treatment for 3 days.Data from two shRNAs are combined.(n=4, two sided t-test)NS,not significant, *p < 0.05, **p <0.005, ***p<

[4] = system: UBR5-RARA; experiment: In vitro FLAG-UBR5 pull-down of His-tagged RARA; assay type: binding, human; settings: 50 μM ligand, anti-His western, 25 mM HEPES pH 7.4, 125 mM NaCl, 0.05% TWEEN-20
Experimental: 12 μL of FLAG M2 slurry were equilibrated with binding buffer (25 mM HEPES pH 7.4, 125 mM NaCl, 0.05% TWEEN-20). The resin was pelleted and excess buffer removed. 60 μL of fresh binding buffer was re-added, followed by addition of 15 pmol (2.5 μL ofa6 μM solution) of purified FLAG-UBR5 protein and incubated on a rotating wheel at 4°C for 60–90 minutes. The resin was pelleted, excess buffer removed, and 150 μL fresh binding buffer (supplemented with 50 μM ligand of interest or DMSO) added, followed by 150 pmol protein (binding partner protein of interest) and incubated for another 60 minutes. The resin was pelleted, excess buffer removed and washed with 400 μL of binding buffer (supplemented with ligand of interest or DMSO), and this process was repeated three times. The resin was pelleted, excess buffer removed and 45 μL of binding buffer supplemented with 1 mg/mL 3xFLAG peptide was added to elute proteins over 30 minutes on a rotating wheel at room temperature. The resin was pelleted, and 40 μL of the supernatant was collected and mixed with 12 μL of 5xSDS gel loading buffer. 6 μL of these samples were applied to SDS-PAGE on a 4–20% gradient gel (Biorad). The gel was transferred to a nitrocellulose membrane using the Trans-Blot Turbo Transfer System (Biorad). Following blocking with 5% skim milk solution in TBST, primary antibodies targeting the NR proteins were added in TBST and incubated overnight at 4 °C. The following day, membranes were washed thrice with TBST buffer and incubated for 45 minutes with fluorescent secondary antibody (Invitrogen A11357), followed by three more washes with TBST. Imaging was performed on a Licor Odyssey system, scanned at 800 nm.

[5] = system: UBR5-RARA/RXRA; experiment: In vitro FLAG-UBR5 pull-down of His-tagged RARA/RXRA heterodimer; assay type: binding, human; settings: 50 μM ATRA, mutant proteins
Experimental: The resin was pelleted and excess buffer removed. 60 μL of fresh binding buffer was re-added, followed by addition of 15 pmol (2.5 μL ofa6 μM solution) of purified FLAG-UBR5 protein and incubated on a rotating wheel at 4°C for 60–90 minutes. The resin was pelleted, excess buffer removed, and 150 μL fresh binding buffer (supplemented with 50 μM ligand of interest or DMSO) added, followed by 150 pmol protein (binding partner protein of interest) and incubated for another 60 minutes. The resin was pelleted, excess buffer removed and washed with 400 μL of binding buffer (supplemented with ligand of interest or DMSO), and this process was repeated three times. The resin was pelleted, excess buffer removed and 45 μL of binding buffer supplemented with 1 mg/mL 3xFLAG peptide was added to elute proteins over 30 minutes on a rotating wheel at room temperature. The resin was pelleted, and 40 μL of the supernatant was collected and mixed with 12 μL of 5xSDS gel loading buffer. 6 μL of these samples were applied to SDS-PAGE on a 4–20% gradient gel (Biorad). The gel was transferred to a nitrocellulose membrane using the Trans-Blot Turbo Transfer System (Biorad). Following blocking with 5% skim milk solution in TBST, primary antibodies targeting the NR proteins were added in TBST and incubated overnight at 4 °C. […]

[6] = system: RARA reporter; experiment: RARA reporter degradation (GFP/mCherry); assay type: cell-based, human
Experimental: (§1) Reporter cell lines were seeded in triplicate at a density of 1 million cells/ml in 100 μl per well in a 96 well plate and measured once. Ligand was added by Digital Dispenser (Tecan), and incubated at 37°C for the appropriate time before reading by flow cytometry. Cells were analyzed for GFP vs mCherry expression. GFP expression was normalized to mCherry signal and ligand treatments were compared to DMSO controls.

[7] = system: PML-RARA-GFP reporter; experiment: PML-RARA-GFP reporter degradation; assay type: cell-based, human; settings: equivalent single-residue glutamate substitutions
Experimental: as §1

[8] = system: RARA complexes (NCOR, NCOA, UBR5); experiment: RARA-GFP immunoprecipitation (IP-MS and IP-western); assay type: cell-based, human
Experimental: To examine the temporal dynamics of this competition in cells, we performed sequential RARA immunoprecipitation/mass spectrometry (IP/MS) in the presence of MG132 at 0, 4, and 16 h following ATRA treatment.
Reporter cells (up to 100 million) were treated with ligand (ATRA, dexamethasone) and allowed to incubate for different time points. […] Lysates were incubated with GFP-Trap Magnetic Agarose beads (ChromoTek, GTMA-20) overnight at 4°C on a rotator. Beads were magnetically removed and washed three times with Pierce IP Lysis Buffer with ligand added before boiling in 1x NuPAGE LDS Sample Buffer (ThermoFischer, NP0007).
After the washing step, samples were eluted using Glycine-HCl buffer (0.2 M, pH 2.4) and rebuffered to pH 8.0. The IP eluates were reduced with 10 mM TCEP for 30 min at room temperature, and then alkylated with 15 mM iodoacetamide for 45 min at room temperature in the dark. Alkylation was quenched by the addition of 10 mM DTT. Proteins were isolated by methanol-chloroform precipitation. The protein pellets were dried and then resuspended in 50 μL 200 mM EPPS pH 8.0. The resuspended protein samples were digested with 2 μg LysC overnight at room temperature followed by the addition of 0.5 μg Trypsin for 6 h at 37°C. Protein digests were dried, resuspended in 100 μL 1% formic acid, and desalted using 10-layer C18 stage-tips before being analyzed by LC-MS.

[9] = system: RARA and UBR5 on chromatin in NB4 cells; experiment: ChIP-seq of RARA and UBR5 in NB4 cells; assay type: cell-based, human; settings: NB4, ATRA 8 and 24 h vs DMSO
Experimental: Cell lines were expanded (up to 50 million), treated with ligand, and incubated at 37 °C. Cells were pelleted by centrifugation for 5 minutes, washed twice with cold PBS, and resuspended, in 5 ml of room temperature PBS. 20 μl of 0.5M Disuccinimidyl glutarate (DSG) (ThermoFisher), was added and incubated for 30 minutes at room temperature. Cells were pelleted by centrifugation and resuspended in 8.325 ml of PBS and 8.325 ml of 2% formaldehyde and incubated for 30 minutes at room temperature. Cross-linking was quenched by the addition of 1665 μl of 1 M Tris-HCl pH 8.0 and 832.5 μl of 2.5 M glycine. Cells were pelleted and washed twice with PBS. Cross-linked cells were resuspended in LB1 Buffer (50mM HEPES-KOH, pH7.5, 140mM NaCl, 1mM EDTA, 10% Glycerol, 0.5% NP-40, 0.25% Triton X-100 in distilled water) and rotated for 10 minutes at 4C. Cells were pelleted and resuspended in LB2 (10mM Tris-HCl, pH 8.0, 200mM NaCl, 1mM EDTA, 0.5mM EGTA in distilled water) and rotated for 10 minutes at 4C. Cells were pelleted and resuspended in LB3 (10mM Tris-HCL, pH 8.0, 100mM NaCl, 1mM EDTA, 0.5mM EGTA, 0.1% Na-deoxycholate, 0.5% Na-Lauroylsarcosine, 1% Triton X-100, in distilled water) sonicated (Covaris, E220). […] Fragment length and concentrations were assessed using TapeStation (Agilent) and Qubit (ThermoFisher), and libraries were sequenced on an Illumina NextSeq 550 sequencer. […]

[10] = system: ATRA-induced gene expression in NB4 cells; experiment: RNA sequencing of NB4 cells; assay type: cell-based, human; settings: NB4, ATRA 0, 8, 24, 48 h
Experimental: Cell lines were expanded, treated with ligand, and incubated at 37C. Cells were pelleted by centrifugation for 5 minutes, washed with cold PBS, and RNA was isolated by RNeasy kit (Qiagen) per manufacturer’s instructions. RNA was sent to Novogene for library preparation and sequencing, or prepared for sequencing (NEBNext, New England Biolabs) and sequenced on an Illumina NextSeq 550 sequencer.
Paired-end reads were aligned to the hg38.p13[81],[82] reference genome with the STAR[83] (v5.2.7b) aligner as part of the RSEM[99] command line tool. Gene transcript abundance was further quantified from aligned fragments using RSEM to generate a gene-by-sample matrix of expected counts. Differential expression was tested, as with the ChIP-seq data, using the DESeq[88],[93]2 and ashr[94] pipeline, this time calculating sample-specific scale factor offset using the method of median-ratio as implemented in the R package EBSeq[100] (v1.36.0). For plotting in heatmaps, genes were selected based on ChIP-seq peak annotation and subset.

[11] = system: UBR5-RARA/RXRA; experiment: RARE dsDNA incorporation into UBR5-RARA/RXRA complex; assay type: binding, human
Experimental: A.Western blot (anti-His)showingin vitroFLAG-UBR5 pulldownofpurified His-tagged RARA/RXRA heterodimer, showing thata fluorescein-labelled 24-merdsDNAcontaining a DR5 Retinoic Acid
Immediately before preparing samples for SDS-PAGE, fluorescence
counts were measured at 488 nm to assessdsDNAincorporation. Fluorescence counts were normalized to the –dsDNA, DMSO condition as abaseline.

[12] = system: PML-RARA; design: method as in PMID 10611294, PMID 20378816; settings: ATRA targets RARA, ATO targets PML, ref [6],[11]; cited from earlier work

## CC1=C(/C=C/C(C)=C/C=C/C(C)=C/C(=O)O)C(C)(C)CCC1 [ATRA, all-trans-retinoic acid]
[1]
  protein levels of RARA and RXRA: significantly and selectively decreased
[2]; 10 µM ATRA with MG132 or MLN4924
  RARA and PML-RARA degradation, proteasome / neddylation dependence: dependent on the proteasome, but not neddylation
[2]; UBR5 shRNA
  effect of UBR5 knockdown on PML-RARA degradation: prevented ATRA-induced degradation of PML-RARA in NB4 cells
[2]; UBR5 shRNA vs control shRNA
  effect of UBR5 knockdown on RARA degradation: rescued ATRA-induced RARA degradation
[3]
  ATRA sensitivity upon UBR5 knockdown: decreased ATRA sensitivity in NB4 cells
[4]
  binding of RARA to UBR5: robustly induced binding of RARA to UBR5
[5]
  agonist-induced binding of RARA V240E / RXRA V280E to UBR5: abolished agonist-induced binding to UBR5 in vitro
[6]; HEK293, CRISPR-edited UBR5 deficient of HECT domain, n = 3
  requirement of UBR5 HECT domain for RARA reporter degradation: necessary for ATRA-induced RARA reporter degradation
[6]; I254 and I258 mutations, n = 3
  degradation of RARA reporter, I254 / I258 glutamate mutants: significantly reduced ATRA-induced degradation
[6]; RARA LBD only, ATRA
  RARA LBD reporter degradation: still mediated ATRA-induced reporter degradation
[6]; V240 single mutation, n = 3
  degradation of RARA reporter, V240 glutamate mutant: abolished ATRA-induced degradation
[7]
  degradation of PML-RARA-GFP reporter, cleft mutants: blocked ATRA-induced degradation of the PML-RARA-GFP reporter in cells
[8]; U937 RARA-GFP, 10 µM ATRA / MG132, 0-24 h
  RARA-associated NCOA1 and UBR5 by IP-western: initial NCOA1 binding to RARA after 4 h of ATRA treatment, diminishing NCOA1 binding from 4 to 16 h, and increased binding of UBR5 at 16 and 24 h
[8]; with MG132, 0, 4, 16 h ATRA
  RARA-associated UBR5 by IP/MS: enrichment of UBR5 peptides at 16 h post ATRA treatment
[9]
  RARA ChIP-seq peaks: lost following ATRA treatment
  UBR5 ChIP-seq binding at RARA loci: binding was strengthened following ATRA treatment
[10]
  effect of UBR5 knockdown on ATRA-induced transcription: strongly decreased transcriptional activation
[11]
  DNA incorporation into UBR5-RARA/RXRA complex: DNA was readily incorporated into a UBR5-RARA/RXRA complex
[12]
  PML-RARA degradation (literature): PML-RARA is degraded therapeutically

From paper PMC11134608, “UBR5 forms ligand-dependent complexes on chromatin to regulate nuclear hormone receptor stability” (Molecular cell, 2023)
